From patent US12600732B2, “Bifunctional compounds for degrading BTK via ubiquitin proteosome pathway” (NURIX THERAPEUTICS, INC., priority 2019, dated 2026)
Several values for one entry are separate records, joined by “and”; a condition that tells them apart may be missing. Identical values can stand only once.

Tests used:
[1] = target: T1, BTK (Canis lupus familiaris, UniProt A0A8I3P3Z9); assay: PD data from dog (BTK degradation); assay type: in vivo; conditions: blood
T1 construct: from tissue
From the text: (§1) In this example, compounds were profiled for activity in non-mouse species.

[2] = system: BTK; assay: PD data from cyno (BTK degradation); assay type: in vivo; conditions: blood
From the text: as §1

[3] = system: TMD8 tumor cells; assay: TMD8 xenograft efficacy study (wild-type BTK); assay type: in vivo, mouse; conditions: TMD8 WT
Procedure: […] Tumor growth inhibition (% TGI) were calculated on the final day of measurement using the equation [1−(T−T0/C−T0)]×100, where T and C represent the mean size of tumors in the treated (T) and control (C) groups, and T0 refers to the tumor size at randomization.
(§2) This example examines the activity of various BTK CTMs in relevant disease models, including the WT and C481S TMD8 model, which models B cell malignancies with/without inhibitor-driven BTK mutations at C481.

[4] = PK data for BTK CTMs (in vivo plasma concentrations); conditions: Mouse Balb/c
From the text: The present example evaluates in vivo plasma concentrations of BTK CTMs to develop PK-PD-efficacy relationship and predict human exposure.

[5] = target: T2, TEC kinase (Homo sapiens, UniProt P42680); assay: TEC kinase degradation in K562 cells (western blot); assay type: cell-based; conditions: FIGS. 13A-13D
T2 construct: endogenous in cells; host or cells: K562
T2 sequence (P42680 1-631): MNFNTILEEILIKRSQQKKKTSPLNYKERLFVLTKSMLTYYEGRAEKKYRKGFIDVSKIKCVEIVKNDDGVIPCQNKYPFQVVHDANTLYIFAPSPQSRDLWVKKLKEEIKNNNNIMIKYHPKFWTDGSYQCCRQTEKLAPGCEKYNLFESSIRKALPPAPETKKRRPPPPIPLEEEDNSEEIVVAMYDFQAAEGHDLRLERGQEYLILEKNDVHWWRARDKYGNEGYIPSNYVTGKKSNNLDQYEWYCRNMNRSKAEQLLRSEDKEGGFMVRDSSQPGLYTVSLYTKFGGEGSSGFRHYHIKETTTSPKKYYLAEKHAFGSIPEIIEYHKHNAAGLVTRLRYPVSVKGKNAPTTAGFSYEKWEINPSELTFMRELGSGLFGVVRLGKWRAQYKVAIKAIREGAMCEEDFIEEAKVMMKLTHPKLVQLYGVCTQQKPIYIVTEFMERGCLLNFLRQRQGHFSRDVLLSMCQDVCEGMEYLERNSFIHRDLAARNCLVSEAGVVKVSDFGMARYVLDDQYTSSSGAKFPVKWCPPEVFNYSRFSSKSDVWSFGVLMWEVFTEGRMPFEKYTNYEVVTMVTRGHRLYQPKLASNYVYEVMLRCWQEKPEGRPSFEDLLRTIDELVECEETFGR
Procedure: To determine effects of BTK CTMs on TEC levels in cells, K562 cells were treated for four hours with CTMs at concentrations between 0.026-2000 nM. TEC levels in cell lysate was assessed by western blot.

[6] = system: 1:1 TMD8 WT:TMD8 C481S; assay: Mouse xenograft efficacy study, 1:1 TMD8 WT:TMD8 C481S model; assay type: in vivo; conditions: PO, 30 mg/kg, BID, 21 days of dosing
From the text: (§3) Efficacy in Mouse Xenograft Models
as §2

[7] = system: TMD8 C481S cells; assay: Cell viability assay (CellTiter-Glo), TMD8 C481S cells
Procedure: Cell viability was determined using CellTiter-Glo 2.0 Luminescent Cell Viability Assay (Promega, G9242), which quantitates the amount of ATP present as a proxy for the number of viable cells in culture. Cells were plated with densities between 2000-4000 cells per well in 96-well plates. […] CellTiter-Glo reagent was added to cells at a dilution of 1:20, and the plate was incubated ten minutes at room temperature prior to reading the luminescence signal using an EnVision plate reader. Controls included cells treated with DMSO and wells that contained no cells, only media. Background luminescence signal was determined by control wells containing no cells, only media, and was then subtracted from all sample wells. Luminescence values were then normalized to DMSO-treated wells and reported at proportion viable cells.

[8] = target: BTK (Homo sapiens, UniProt Q06187); assay: BTK remaining in TMD8 WT mouse xenograft study; assay type: in vivo; design: from tissue; host or cells: TMD8 xenograft in CB.17 SCID mice
From the text: as §3, §2

[9] = target: BTK C481S (Homo sapiens, UniProt Q06187, C481S); assay: BTK remaining in TMD8 C481S mouse xenograft study; assay type: in vivo; design: from tissue; host or cells: TMD8 BTK-C481S xenograft in CB.17 SCID mice; conditions: PO, 23 days of dosing
From the text: as §3, §2

[10] = PO (water bottle), 15 mg/kg, QD (water bottle), 21 days of dosing
[11] = PO (water bottle), 35 mg/kg, QD (water bottle), 23 days of dosing

With `CN1CCN([C@@H]2CCCN(c3cnc(C(N)=O)c(Nc4ccc(C5CCN(C[C@H]6CCN(c7ccc8c(c7)C(=O)N(C7CCC(=O)NC7=O)C8=O)C6)CC5)cc4)n3)C2)C1=O` (stereo partly shown) [Compound 44] the “% BTK Remaining” value ([1]; 10 mg/kg PO, 2 h) was 88%, the “% BTK Remaining” value ([1]; 10 mg/kg PO, 4 h) was 56% and the “% BTK Remaining” value ([1]; 10 mg/kg PO, 8 h) was 35%. The “% BTK Remaining” value ([1]; 10 mg/kg PO, 24 h) was 19%, the “% BTK Remaining” value ([1]; 30 mg/kg PO, 2 h) was 87% and the “% BTK Remaining” value ([1]; 30 mg/kg PO, 4 h) was 58%. The “% BTK Remaining” value ([1]; 30 mg/kg PO, 8 h) was 28%, the “% BTK Remaining” value ([1]; 30 mg/kg PO, 24 h) was 14% and the “% BTK Remaining” value ([2]; 1 mg/kg IV, 2 h) was 6%. The “% BTK Remaining” value ([2]; 1 mg/kg IV, 4 h) was 6%, the “% BTK Remaining” value ([2]; 1 mg/kg IV, 8 h) was 7% and the “% BTK Remaining” value ([2]; 1 mg/kg IV, 24 h) was 9%. The “% BTK Remaining” value ([2]; 1 mg/kg PO, 2 h) was 85%, the “% BTK Remaining” value ([2]; 1 mg/kg PO, 4 h) was 65% and the “% BTK Remaining” value ([2]; 1 mg/kg PO, 8 h) was 52%. For the same compound, the “% BTK Remaining” value ([2]; 1 mg/kg PO, 24 h) was 40%, the “% BTK Remaining” value ([2]; 10 mg/kg PO, 2 h, 10 mg/kg) was 59% and 82% and the “% BTK Remaining” value ([2]; 10 mg/kg PO, 4 h, 10 mg/kg) was 35% and 42%. For the same compound, the “% BTK Remaining” value ([2]; 10 mg/kg PO, 8 h, 10 mg/kg) was 22% and 27%, the “% BTK Remaining” value ([2]; 10 mg/kg PO, 24 h, 10 mg/kg) was 15% and 29% and the “% BTK Remaining” value ([2]; 30 mg/kg PO, 2 h) was 83%. For the same compound, the “% BTK Remaining” value ([2]; 30 mg/kg PO, 4 h) was 47%, the “% BTK Remaining” value ([2]; 30 mg/kg PO, 8 h) was 22% and the “% BTK Remaining” value ([2]; 30 mg/kg PO, 24 h) was 17%. The “% BTK Remaining” value ([2]; 100 mg/kg PO, 2 h) was 48%, the “% BTK Remaining” value ([2]; 100 mg/kg PO, 4 h) was 27% and the “% BTK Remaining” value ([2]; 100 mg/kg PO, 8 h) was 12%. The “% BTK Remaining” value ([2]; 100 mg/kg PO, 24 h) was 8%, the “Tumor Growth Inhibition (relative to vehicle)” value [3, 10] was 29% and the “Tumor Growth Inhibition (relative to vehicle)” value [3, 11] was 89%. For the same compound, the “Tumor Growth Inhibition (relative to vehicle)” value ([3]; PO, 7.5 mg/kg, BID, 21 days of dosing) was 100%, the “Tumor Growth Inhibition (relative to vehicle)” value ([3]; PO, 15 mg/kg, BID, 21 days of dosing) was 100% and the “Tumor Growth Inhibition (relative to vehicle)” value ([3]; PO, 30 mg/kg, BID, 23 days of dosing) was 99%. The “Tumor Growth Inhibition (relative to vehicle)” value ([3]; PO, 30 mg/kg, QD, 23 days of dosing) was 83%, the “Tumor Growth Inhibition (relative to vehicle)” value ([3]; PO, 90 mg/kg, BID, 23 days of dosing) was 100% and the “Tumor Growth Inhibition (relative to vehicle)” value ([3]; PO, 90 mg/kg, QD, 23 days of dosing) was 93%. The AUC ([4]; 1 mg/kg IV) was 4.07 µM·h, the clearance ([4]; 1 mg/kg IV) was 5.1 mL/min/kg and the Vd ([4]; 1 mg/kg IV, read-out: Volume of Distribution) was 0.69 L/kg. The AUC ([4]; 10 mg/kg PO) was 4 µM·h, the bioavailability ([4]; 10 mg/kg PO) was 10% and the “degradation of BTK compared with TEC” value [5] was “more potent degradation of BTK than TEC”. For the same compound, the “effects on TEC kinase levels” value ([5]; four hours, 0.026-2000 nM, western blot) was “mild to moderate effects”, the “Tumor Growth Inhibition (relative to vehicle)” value [6] was 54% and the EC50 ([7]; Homo sapiens, TMD8, 72 h) was 8.1 nM. For the same compound, the “EMAX (% viable cells)” value ([7]; TMD8 C481S cells, treatment time 72 h) was 25%, the “BTK Remaining (% relative to vehicle)” value [8, 10] was 7% and the “BTK Remaining (% relative to vehicle)” value [8, 11] was 18%. The “BTK Remaining (% relative to vehicle)” value ([8]; PO, 30 mg/kg, QD, 21 days of dosing) was 32% and 20%, the “BTK Remaining (% relative to vehicle)” value ([9]; 5 mg/kg, BID) was 44% and the “BTK Remaining (% relative to vehicle)” value ([9]; 10 mg/kg, QD) was 38%. The “BTK Remaining (% relative to vehicle)” value ([9]; 15 mg/kg, BID) was 25%, the “BTK Remaining (% relative to vehicle)” value ([9]; 30 mg/kg, BID) was 39% and 35% and the “BTK Remaining (% relative to vehicle)” value ([9]; 30 mg/kg, QD) was 51% and 42%. The “BTK Remaining (% relative to vehicle)” value ([9]; 60 mg/kg, QD) was 36%.
